Data as given in patent publication US10800752B2, “Substituted naphtho[2,3-b]furans as water-soluble prodrugs for preventing and/or treating cancer” (BOSTON BIOMEDICAL, INC., priority 2015, dated 2020).

Assays:
[1] = Pharmacokinetics test, intravenous administration; conditions: for Plasma Compound Concentration: Activated form 1 in plasma, 10.5 mg/kg (i.v.)
Method: For water-soluble prodrugs described in the EXAMPLES, the concentration of 2-acetylnaphtho[2,3-b]furan-4,9-dione (Activated form 1) in plasma was measured. Animal species, an administration method, a method of making standard solutions, and a method of measuring the concentration in plasma are as described below.
Animal: Seven-week-aged male CD1 (ICR) mice were used as an experimental animal.
Administration method: A test substance was weighed, and then dissolved in 50 mmol/L glycine buffered saline (pH 2.0) to produce an administration solution. The body weight of a mouse was measured, and the prepared administration solution was intravenously administered.
Blood collecting method: Heparin was added to a blood-collecting vessel, and blood was collected from a mouse. To the obtained blood, 46% of Citric acid was added in 1% volume. It was then centrifuged to obtain plasma. To the collected plasma, 1 mol/L HCl was added in 10% volume to produce a plasma sample. A sample obtained by adding 10% volume of 1 mol/L HCl to blank plasma was used as a blank sample.
Making of a standard solution: One mg of a test sample was weighed, and dissolved in 10 mL of acetonitrile using a measuring flask to make a standard solution of 100 ug/mL.
Measurement of the concentration in plasma: One hundred ug/mL of the standard solution was diluted in 50% acetonitrile solution to make calibration curve samples of target concentrations. Twenty uL of a blank sample was added to 18 uL of the calibration curve sample to make a plasma calibration curve sample. Eighteen uL of 50% acetonitrile solution was added to 20 uL of the administered plasma sample to make a sample for plasma analysis. One hundred uL of acetonitrile (containing 1% volume of 10 mol/L HCl) containing an internal standard was added to the plasma calibration curve sample and the sample for plasma analysis, respectively. It should be noted that phenytoin was used as the internal standard and its concentration was prepared in 100 nmol/L. 10 uL of each sample was analyzed with LC-MS. A calibration curve was made from a value (peak ratio) of the peak area of a test substance in MS divided by the peak area of the internal standard, and the concentrations of plasma calibration curve samples. The concentration in a sample was calculated from the peak ratio of each sample and the calibration curve.

[2] = Evaluation of a conversion rate to 2-acetylnaphtho[2,3-b]furan-4,9-dione in human plasma; type: in vitro ADME; conditions: Human plasma, 1 umol/L, 37° C., incubation time 120 min
In short: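 Compounds at 1 umol/L incubated at 37° C in human plasma, CD1 mouse plasma or pH 7.4 phosphate buffer, sampled up to 120 minutes. After acidified acetonitrile protein removal, parent loss and conversion to 2-acetylnaphtho[2,3-b]furan-4,9-dione measured by LC-MS (ESI positive).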

Solubility test = conditions: 50 mmol/L glycine buffer solution (pH 2.0), room temperature, 24 hours shaking
Method: A water-soluble prodrug was added into 50 mmol/L glycine buffer solution (pH 2.0). After shaking at room temperature for 24 hours, the mixture was filtered through a membrane filter, and then the filtrate was measured with HPLC.
The measurement condition of HPLC is as described below. HPLC condition column: Acquity UPLC BEH C18, 1.7 um, 50×2.1 mm

[3] = Evaluation of a conversion rate to 2-acetylnaphtho[2,3-b]furan-4,9-dione in pH 7.4 phosphate buffer solution; type: physicochemical; conditions: Phosphate buffer solution (pH 7.4), 1 umol/L, 37° C., incubation time 120 min
In short: (§1)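 Compounds at 1 umol/L were incubated at 37° C in human plasma, CD1 mouse plasma or pH 7.4 phosphate buffer, sampled up to 120 minutes, acid/acetonitrile-deproteinised and analysed by LC-MS (ESI positive). Conversion (%) derived from the peak area ratio of the active form to phenytoin internal standard.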

[4] = Evaluation of a conversion rate to 2-acetylnaphtho[2,3-b]furan-4,9-dione in CD1 mouse plasma; type: in vitro ADME; conditions: CD1 mouse plasma, 1 umol/L, 37° C., incubation time 120 min
In short: as §1

Solution stability test = type: physicochemical; conditions: for % Residual ratio: 25 umol/L
Method: For Example 6, Example 11, and Example 22, the stability in each pH was measured. Test compounds at a concentration of 25 umol/L in respective buffer solutions prepared at pH 2.0, 3.0, 5.0, 7.4, and 9.0 were allowed to stand at 25° C. After 0, 3, 6, 9, 12, and 24 hours, they were measured with HPLC.
The buffer solutions used at respective pHs are as described below. pH 2.0: 50 mmol/L glycine buffer solution pH 3.0: 50 mmol/L citrate buffer solution pH 5.0: 50 mmol/L citrate buffer solution pH 7.4: 50 mmol/L phosphate buffer solution pH 9.0: 50 mmol/L glycine buffer solution
The measurement condition of HPLC is as described below.
Column temperature: 40° C.
Mobile phase: A: 0.1% trifluoroacetic acid-containing water

COC(=O)[C@@H](N)CCNC(=O)Oc1c2ccccc2c(OC(=O)NCC[C@H](N)C(=O)OC)c2oc(C(C)=O)cc12.Cl.Cl [Example 11]
Plasma Compound Concentration ([1]; 0.083 hr, animal 1): 3740 nM | Plasma Compound Concentration ([1]; 0.083 hr, animal 2): 4410 nM | Plasma Compound Concentration ([1]; 0.083 hr, animal 3): 5290 nM | Plasma Compound Concentration ([1]; 0.083 hr, mean): 4480 nM | Plasma Compound Concentration ([1]; 0.5 hr, animal 1): 690 nM | Plasma Compound Concentration ([1]; 0.5 hr, animal 2): 1170 nM | Plasma Compound Concentration ([1]; 0.5 hr, animal 3): 1390 nM | Plasma Compound Concentration ([1]; 0.5 hr, mean): 1080 nM | Plasma Compound Concentration ([1]; 1.0 hr, animal 1): 420 nM | Plasma Compound Concentration ([1]; 1.0 hr, animal 2): 620 nM | Plasma Compound Concentration ([1]; 1.0 hr, animal 3): 630 nM | Plasma Compound Concentration ([1]; 1.0 hr, mean): 560 nM | Plasma Compound Concentration ([1]; 2.0 hr, animal 1): 360 nM | Plasma Compound Concentration ([1]; 2.0 hr, animal 2): 280 nM | Plasma Compound Concentration ([1]; 2.0 hr, animal 3): 80 nM | Plasma Compound Concentration ([1]; 2.0 hr, mean): 240 nM | production of 2-acetylnaphtho[2,3-b]furan-4,9-dione (Activated form 1) (in words) ([1]; intravenously administered to mice): rapidly produced | % Measurement value (conversion rate to 2-acetylnaphtho[2,3-b]furan-4,9-dione) [2]: 100% | Solubility in pH 2.0 buffer solution (Solubility test): >5.0 mg/mL | % Measurement value (conversion rate to 2-acetylnaphtho[2,3-b]furan-4,9-dione) [3]: 58% | % Measurement value (conversion rate to 2-acetylnaphtho[2,3-b]furan-4,9-dione) [4]: 100% | stability in solution (in words) (Solution stability test; pH 2.0, 25° C.): very stable | % Residual ratio (Solution stability test; pH 2.0, 25° C., 0 hr): 100% | % Residual ratio (Solution stability test; pH 2.0, 25° C., 3 hr): 100% | % Residual ratio (Solution stability test; pH 2.0, 25° C., 6 hr): 102% | % Residual ratio (Solution stability test; pH 2.0, 25° C., 9 hr): 102% | % Residual ratio (Solution stability test; pH 2.0, 25° C., 12 hr): 104% | % Residual ratio (Solution stability test; pH 2.0, 25° C., 24 hr): 102% | stability in solution (in words) (Solution stability test; pH 3.0, 25° C.): sufficient stability | % Residual ratio (Solution stability test; pH 3.0, 25° C., 0 hr): 100% | % Residual ratio (Solution stability test; pH 3.0, 25° C., 3 hr): 98.6% | % Residual ratio (Solution stability test; pH 3.0, 25° C., 6 hr): 97.3% | % Residual ratio (Solution stability test; pH 3.0, 25° C., 9 hr): 98.8% | % Residual ratio (Solution stability test; pH 3.0, 25° C., 12 hr): 94.5% | % Residual ratio (Solution stability test; pH 3.0, 25° C., 24 hr): 90.7% | % Residual ratio (Solution stability test; pH 5.0, 25° C., 0 hr): 100% | % Residual ratio (Solution stability test; pH 5.0, 25° C., 3 hr): 36.0% | % Residual ratio (Solution stability test; pH 5.0, 25° C., 6 hr): 14.0% | % Residual ratio (Solution stability test; pH 5.0, 25° C., 9 hr): 5.2% | % Residual ratio (Solution stability test; pH 5.0, 25° C., 12 hr): 0% | % Residual ratio (Solution stability test; pH 5.0, 25° C., 24 hr): 0% | % Residual ratio (Solution stability test; pH 7.4, 25° C., 0 hr): 100% | % Residual ratio (Solution stability test; pH 7.4, 25° C., 3 hr): 0% | % Residual ratio (Solution stability test; pH 7.4, 25° C., 6 hr): 0% | % Residual ratio (Solution stability test; pH 7.4, 25° C., 9 hr): 0% | % Residual ratio (Solution stability test; pH 7.4, 25° C., 12 hr): 0% | % Residual ratio (Solution stability test; pH 7.4, 25° C., 24 hr): 0% | % Residual ratio (Solution stability test; pH 9.0, 25° C., 0 hr): 100% | % Residual ratio (Solution stability test; pH 9.0, 25° C., 3 hr): 0% | % Residual ratio (Solution stability test; pH 9.0, 25° C., 6 hr): 0% | % Residual ratio (Solution stability test; pH 9.0, 25° C., 9 hr): 0% | % Residual ratio (Solution stability test; pH 9.0, 25° C., 12 hr): 0% | % Residual ratio (Solution stability test; pH 9.0, 25° C., 24 hr): 0%
